Test system: luminescent Pseudomonas aeruginosa
Test: LD50 of luminescent Pseudomonas aeruginosa in mice, effect of anesthesia or adjuvant on virulence
Assay type: in vivo
Conditions: Ketamine-sedated mice; non-anesthetized mice: approximately 2.5×10^6 CFU
Text: One of the factors typically determined in the calibration process is a suitable dose of pathogen for the selected model system of sepsis. This dose is preferably based on the LD50 of the pathogen in the particular animal model of sepsis being used. The LD50, or “Lethal Dose 50”, is a measure for quantifying the effects of a perturbation (e.g., a test compound, procedure, or bacterial infection) on a biological system. It represents the 50% mortality point—that is, the concentration or level of a particular perturbation at which half of the animals die by the end of the experiment.
The LD50 may change depending on the experimental parameters. The measure is therefore expressed as an LD50 for a given experimental system. By way of example, it was discovered in the course of experiments performed in support of the present invention that the type of anesthesia used to prepare the animals for imaging can have a significant effect on the LD50. Specifically, it was discovered that anesthesia induced by injectable Ketamine may potentiate the virulence of some pathogens.
For example, it was found during experiments performed in support of the present invention that pathogen virulence is boosted by administration of 5% (by volume) hog gastric mucin to the host. […]

CNC1(c2ccccc2Cl)CCCCC1=O (stereo not shown) [Ketamine]
LD50 of luminescent Pseudomonas aeruginosa: ~4.6×10^5 CFU
